Assay results from ChEMBL document CHEMBL3868609, “[2.2.1]-Bicyclic sultams as potent androgen receptor antagonists” (Bioorg Med Chem Lett, 2016).
Calls of active or inactive are those of the source. The calls are words filed in the database; no cut-off is given here.

What was measured:
Androgen receptor [1] = molecular target: T1, Androgen receptor (Homo sapiens, UniProt P10275); experiment: Displacement of [3H]DHT from androgen receptor in human MDA-MB-453 cells; type: cell-based
T1 sequence (P10275 whole entry): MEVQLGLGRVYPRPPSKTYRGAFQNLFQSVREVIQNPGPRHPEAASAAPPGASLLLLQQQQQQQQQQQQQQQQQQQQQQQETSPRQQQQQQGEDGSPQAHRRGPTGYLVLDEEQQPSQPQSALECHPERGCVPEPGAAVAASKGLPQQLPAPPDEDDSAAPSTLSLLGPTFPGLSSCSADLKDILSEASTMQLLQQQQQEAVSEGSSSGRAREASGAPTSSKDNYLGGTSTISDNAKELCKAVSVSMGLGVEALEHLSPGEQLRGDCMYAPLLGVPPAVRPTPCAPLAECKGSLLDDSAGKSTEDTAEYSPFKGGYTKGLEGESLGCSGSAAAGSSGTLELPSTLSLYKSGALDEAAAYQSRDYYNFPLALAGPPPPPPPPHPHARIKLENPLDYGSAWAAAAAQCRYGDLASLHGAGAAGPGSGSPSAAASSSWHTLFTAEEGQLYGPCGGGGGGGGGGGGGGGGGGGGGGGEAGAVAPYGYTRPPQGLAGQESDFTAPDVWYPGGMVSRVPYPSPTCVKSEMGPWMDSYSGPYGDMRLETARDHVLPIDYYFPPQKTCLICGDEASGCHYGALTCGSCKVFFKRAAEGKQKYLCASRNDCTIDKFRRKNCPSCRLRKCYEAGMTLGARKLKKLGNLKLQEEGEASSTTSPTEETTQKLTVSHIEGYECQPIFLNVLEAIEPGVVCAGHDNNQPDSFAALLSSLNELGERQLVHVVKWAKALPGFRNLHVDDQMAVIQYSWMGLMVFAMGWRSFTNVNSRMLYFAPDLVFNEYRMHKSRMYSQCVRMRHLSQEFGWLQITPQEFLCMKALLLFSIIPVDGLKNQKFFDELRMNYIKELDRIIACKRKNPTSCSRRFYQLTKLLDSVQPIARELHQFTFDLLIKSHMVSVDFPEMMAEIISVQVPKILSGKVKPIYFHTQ

[2] = AUC (0 to 24 hrs) in BALB/c athymic mouse xenografted with bicalutamide-resistant human CWR22-BMSLD1 cells at 78 mg/kg, po; type: ADME, organism-based; design: time < 24 hr, dose 78 mg/kg, route oral; conditions: in vivo
[3] = Plasma concentration in immature rat prostate weight model at 15 mg/kg, po qd administered for 4 days measured 2 hrs post last dose on day 4; type: ADME, organism-based
Rattus norvegicus [4] = experiment: In vivo antagonist activity at androgen receptor in immature rat prostate weight model assessed as testosterone propionate-induced weight of seminal vesicles over full body weight at 15 mg/kg, po qd administered for 4 days relative to testosterone propionate treated control; type: functional; design: scale not given: the % may be the effect or the level left
Androgen receptor [5] = molecular target: T1, Androgen receptor; experiment: Antagonist activity at androgen receptor in human MDA-MB-453 cells assessed as inhibition of testosterone-induced transactivation; type: cell-based
Rattus norvegicus [6] = experiment: In vivo antagonist activity at androgen receptor in immature rat prostate weight model assessed as testosterone propionate-induced weight of seminal vesicles over full body weight at 10 mg/kg, po qd administered for 4 days relative to testosterone propionate treated control; type: functional; design: scale not given: the % may be the effect or the level left
[7] = Plasma concentration in immature rat prostate weight model at 10 mg/kg, po qd administered for 4 days measured 2 hrs post last dose on day 4; type: ADME, organism-based
Rattus norvegicus [8] = experiment: In vivo antagonist activity at androgen receptor in immature rat prostate weight model assessed as testosterone propionate-induced weight of seminal vesicles over full body weight at 30 mg/kg, po qd administered for 4 days relative to testosterone propionate treated control; type: functional; design: scale not given: the % may be the effect or the level left
Rattus norvegicus [9] = experiment: In vivo antagonist activity at androgen receptor in immature rat prostate weight model assessed as testosterone propionate-induced weight of seminal vesicles over full body weight at 25 mg/kg, po qd administered for 4 days relative to testosterone propionate treated control; type: functional; design: scale not given: the % may be the effect or the level left
[10] = Drug metabolism in mouse liver microsomes assessed as oxidative metabolite formation; type: ADME
[11] = Plasma concentration in immature rat prostate weight model at 25 mg/kg, po qd administered for 4 days measured 2 hrs post last dose on day 4; type: ADME, organism-based
CWR22-BMSLD1 = experiment: Antitumor activity against bicalutamide-resistant human CWR22-BMSLD1 cells xenografted in BALB/c athymic mouse assessed as tumor stasis at 150 mg/kg, po qd for 20 days; type: functional, organism-based
Mus musculus = experiment: Toxicity in BALB/c athymic mouse xenografted with bicalutamide-resistant human CWR22-BMSLD1 cells at 150 mg/kg, po qd for 20 days; type: organism-based; conditions: in vivo, 480 h
[12] = Antitumor activity against bicalutamide-resistant human CWR22-BMSLD1 cells xenografted in BALB/c athymic mouse assessed as tumor growth inhibition at 150 mg/kg, po qd for 20 days measured on last day of dosing relative to control; type: functional; conditions: 480 h, read-out: TGI
[13] = Plasma concentration in immature rat prostate weight model at 30 mg/kg, po qd administered for 4 days measured 2 hrs post last dose on day 4; type: ADME, organism-based

`CNC(=O)[C@@]12[C@@H]3CC[C@@H](C3)[C@@H]1CN(c1ccc(C#N)c(C(F)(F)F)c1)S2(=O)=O` gave a Ki (Androgen receptor [1]) of 3 nM, an AUC(0-t) at 24 h [2] greater than 2 µM·h and a concentration at 2 h [3] of 7250 nM. It also gave an Activity (Rattus norvegicus [4]) of 51% and an IC50 (Androgen receptor [5]) of 44 nM.
Molecule `C[C@@]12[C@@H]3CC[C@@H](C3)[C@@H]1CN(c1ccc(C#N)c(C(F)(F)F)c1)S2(=O)=O` has a Ki (Androgen receptor [1]) of 3 nM and an IC50 (Androgen receptor [5]) of 73 nM.
`CCS(=O)(=O)N[C@@H]1C[C@@]2(C)O[C@]1(C)[C@@H]1C(=O)N(c3ccc(C#N)c(C(F)(F)F)c3)C(=O)[C@@H]12` gave an Activity (Rattus norvegicus [6]) of 26% and a concentration at 2 h [7] of 4 µM.
`N#Cc1ccc(N2C[C@@H]3[C@@H]([C@@H]4C=C[C@H]3C4)S2(=O)=O)cc1C(F)(F)F` gave a Ki (Androgen receptor [1]) of 12 nM and an IC50 (Androgen receptor [5]) of 219 nM.
Work on `N#Cc1ccc(N2C[C@H]3[C@H]4CC[C@H](C4)[C@@]3(C(N)=O)S2(=O)=O)cc1C(F)(F)F` yielded a Ki (Androgen receptor [1]) of 3 nM, an AUC(0-t) at 24 h [2] greater than 2 µM·h and an Activity (Rattus norvegicus [4]) of 55%. It also gave an IC50 (Androgen receptor [5]) of 55 nM.
For `CNC(=O)[C@@]12[C@@H](CN(c3ccc(C#N)c(C(F)(F)F)c3)S1(=O)=O)[C@H]1C[C@H](F)[C@@H]2C1`, the Ki (Androgen receptor [1]) was 5 nM, the AUC(0-t) at 24 h [2] was 0.0031 µM·h and the concentration at 2 h [3] was 2900 nM. It also gave an Activity (Rattus norvegicus [4]) of 30% and an IC50 (Androgen receptor [5]) of 57 nM.
With `C[C@@]12[C@H]3C[C@H]([C@H](O)C3)[C@@H]1CN(c1ccc(C#N)c(C(F)(F)F)c1)S2(=O)=O` the Ki (Androgen receptor [1]) was 28 nM, the AUC(0-t) at 24 h [2] was greater than 2 µM·h and the Activity (Rattus norvegicus [8]) was 58%. For the same molecule, the IC50 (Androgen receptor [5]) was 430 nM.
For `C[C@@]12[C@@H]3C=C[C@@H](C3)[C@@H]1CN(c1ccc(C#N)c(C(F)(F)F)c1)S2(=O)=O`, the Activity (Rattus norvegicus [9]) was 35%, the Ki (Androgen receptor [1]) was 2 nM and the Drug metabolism [10] was “Metabolite_Detected”. The concentration at 2 h [11] was 50 nM, the Activity (CWR22-BMSLD1) was “Active” and the Activity (Mus musculus) was “Non-Toxic”. For the same molecule, the IC50 (Androgen receptor [5]) was 30 nM and the inhibition in vivo at 150 mg/kg [12] was 87%.
For `CC(O)(CS(=O)(=O)c1ccc(F)cc1)C(=O)Nc1ccc(C#N)c(C(F)(F)F)c1` (centres undefined) [BICALUTAMIDE], the Activity (Rattus norvegicus [6]) was 41%, the concentration at 2 h [7] was 9.5 µM and the Activity (Mus musculus) was “Non-Toxic”. For the same molecule, the inhibition in vivo at 150 mg/kg [12] was 39%.
For `C[C@@]12[C@@H]3CC[C@@H](C3O)[C@@H]1CN(c1ccc(C#N)c(C(F)(F)F)c1)S2(=O)=O` (stereo in doubt; 17), the Ki (Androgen receptor [1]) was 48 nM and the IC50 (Androgen receptor [5]) was 327 nM.
In the case of `C[C@@]12[C@@H]3CC[C@@H](C3O)[C@@H]1CN(c1ccc(C#N)c(C(F)(F)F)c1)S2(=O)=O` (stereo in doubt; 15), the Ki (Androgen receptor [1]) is reported as 106 nM and the IC50 (Androgen receptor [5]) is reported as 444 nM.
Molecule `N#Cc1ccc(N2C[C@H]3[C@H]4CC[C@H](C4)[C@H]3S2(=O)=O)cc1C(F)(F)F` has a Ki (Androgen receptor [1]) of 3 nM and an IC50 (Androgen receptor [5]) of 130 nM.
In the case of `C[C@@]12[C@@H]3CC[C@@H](C3=O)[C@@H]1CN(c1ccc(C#N)c(C(F)(F)F)c1)S2(=O)=O`, the Ki (Androgen receptor [1]) is reported as 8 nM and the IC50 (Androgen receptor [5]) is reported as 67 nM.
`C[C@@]12[C@@H](CN(c3ccc(C#N)c(C(F)(F)F)c3)S1(=O)=O)[C@H]1C[C@H](F)[C@@H]2C1` gave a Ki (Androgen receptor [1]) of 8 nM, an AUC(0-t) at 24 h [2] greater than 2 µM·h and a concentration at 2 h [3] of 2800 nM. It also gave an Activity (Rattus norvegicus [4]) of 65% and an IC50 (Androgen receptor [5]) of 91 nM.
`C[C@@]12[C@@H](CN(c3ccc(C#N)c(C(F)(F)F)c3)S1(=O)=O)[C@H]1C[C@H](O)[C@@H]2C1` showed a Ki (Androgen receptor [1]) of 3 nM, an AUC(0-t) at 24 h [2] greater than 2 µM·h and an Activity (Rattus norvegicus [8]) of 60%. For the same molecule, the concentration at 2 h [13] was 790 nM and the IC50 (Androgen receptor [5]) was 106 nM.
